Species: Rattus norvegicus
Assay: DrugMatrix - Regimen: Daily Repeat
Assay type: toxicity, organism-based, Sprague-Dawley
Parameters: regimen Daily Repeat, gender Male, age 6-8 weeks
Settings: in vivo, sc, […], route mini-PUMP - SUBCUTANEOUS, dose 0.44 mg/Kg, dose level High, vehicle 100 % SALINE; for ABSOLUTE BASOPHIL / ABSOLUTE EOSINOPHIL / ABSOLUTE LYMPHOCYTE / ABSOLUTE MONOCYTE / ABSOLUTE SEGMENTED NEUTROPHIL / BASOPHIL / EOSINOPHIL / ERYTHROCYTE COUNT / HEMATOCRIT / HEMOGLOBIN / LEUKOCYTE COUNT / LYMPHOCYTE / MEAN CORPUSCULAR HEMOGLOBIN / MEAN CORPUSCULAR HEMOGLOBIN CONCENTRATION / MEAN CORPUSCULAR VOLUME / MONOCYTE / NEUTROPHIL / NUCLEATED RED BLOOD CELLS / PLATELET COUNT: tissue Blood; for ALANINE AMINOTRANSFERASE / ALBUMIN / ALKALINE PHOSPHATASE / ASPARTATE AMINOTRANSFERASE / BLOOD UREA NITROGEN / CARBON DIOXIDE / CHLORIDE / CHOLESTEROL / CREATININE / GLUCOSE / LACTATE DEHYDROGENASE / LIPASE / PHOSPHORUS / POTASSIUM / SODIUM / TOTAL BILIRUBIN / TOTAL PROTEIN / URIC ACID: tissue Plasma

CNC[C@H](O)c1cccc(O)c1 [PHENYLEPHRINE]
ABSOLUTE BASOPHIL (72 h, time 3 day): 0 CELLS/uL | ABSOLUTE EOSINOPHIL (72 h, time 3 day): 55.67 CELLS/uL | ABSOLUTE LYMPHOCYTE (72 h, time 3 day): 14419.33 CELLS/uL | ABSOLUTE MONOCYTE (72 h, time 3 day): 594.67 CELLS/uL | ABSOLUTE SEGMENTED NEUTROPHIL (72 h, time 3 day): 1063.67 CELLS/uL | BASOPHIL (72 h, time 3 day): 0% | EOSINOPHIL (72 h, time 3 day): 0.33% | ERYTHROCYTE COUNT (72 h, time 3 day): 5.8 x10E6/uL | HEMATOCRIT (72 h, time 3 day): 34.93% | HEMOGLOBIN (72 h, time 3 day): 13 G/DL | LEUKOCYTE COUNT (72 h, time 3 day): 16.13 x10E3/uL | LYMPHOCYTE (72 h, time 3 day): 89.33% | MEAN CORPUSCULAR HEMOGLOBIN (72 h, time 3 day): 22.43 pg | MEAN CORPUSCULAR HEMOGLOBIN CONCENTRATION (72 h, time 3 day): 37.23 G/DL | MEAN CORPUSCULAR VOLUME (72 h, time 3 day): 60.33 fL | MONOCYTE (72 h, time 3 day): 3.67% | NEUTROPHIL (72 h, time 3 day): 6.67% | NUCLEATED RED BLOOD CELLS (72 h, time 3 day): 0.33 /100WBC | PLATELET COUNT (72 h, time 3 day): 1250 x10E3/uL | ALANINE AMINOTRANSFERASE (72 h, time 3 day): 43.33 u/L | ALBUMIN (72 h, time 3 day): 3.87 G/DL | ALKALINE PHOSPHATASE (72 h, time 3 day): 289 u/L | ASPARTATE AMINOTRANSFERASE (72 h, time 3 day): 78.67 u/L | BLOOD UREA NITROGEN (72 h, time 3 day): 16 mg/dL | CARBON DIOXIDE (72 h, time 3 day): 25.67 mmol/L | CHLORIDE (72 h, time 3 day): 102.67 MEQ/L | CHOLESTEROL (72 h, time 3 day): 76 mg/dL | CREATININE (72 h, time 3 day): 0.16 mg/dL | GLUCOSE (72 h, time 3 day): 149 mg/dL | LACTATE DEHYDROGENASE (72 h, time 3 day): 363 u/L | LIPASE (72 h, time 3 day): 9.33 u/L | PHOSPHORUS (72 h, time 3 day): 13.17 mg/dL | POTASSIUM (72 h, time 3 day): 6.76 MEQ/L | SODIUM (72 h, time 3 day): 148.13 MEQ/L | TOTAL BILIRUBIN (72 h, time 3 day): 0.17 mg/dL | TOTAL PROTEIN (72 h, time 3 day): 6.13 G/DL | URIC ACID (72 h, time 3 day): 1.83 mg/dL | ABSOLUTE BASOPHIL (120 h, time 5 day): 0 CELLS/uL | ABSOLUTE EOSINOPHIL (120 h, time 5 day): 45.67 CELLS/uL | ABSOLUTE LYMPHOCYTE (120 h, time 5 day): 14706.67 CELLS/uL | ABSOLUTE MONOCYTE (120 h, time 5 day): 166.33 CELLS/uL | ABSOLUTE SEGMENTED NEUTROPHIL (120 h, time 5 day): 1714.67 CELLS/uL | BASOPHIL (120 h, time 5 day): 0% | EOSINOPHIL (120 h, time 5 day): 0.33% | ERYTHROCYTE COUNT (120 h, time 5 day): 6.03 x10E6/uL | HEMATOCRIT (120 h, time 5 day): 35.63% | HEMOGLOBIN (120 h, time 5 day): 13.2 G/DL | LEUKOCYTE COUNT (120 h, time 5 day): 16.63 x10E3/uL | LYMPHOCYTE (120 h, time 5 day): 88.33% | MEAN CORPUSCULAR HEMOGLOBIN (120 h, time 5 day): 21.9 pg | MEAN CORPUSCULAR HEMOGLOBIN CONCENTRATION (120 h, time 5 day): 37.03 G/DL | MEAN CORPUSCULAR VOLUME (120 h, time 5 day): 59.07 fL | MONOCYTE (120 h, time 5 day): 1% | NEUTROPHIL (120 h, time 5 day): 10.33% | NUCLEATED RED BLOOD CELLS (120 h, time 5 day): 0 /100WBC | PLATELET COUNT (120 h, time 5 day): 1498.33 x10E3/uL | ALANINE AMINOTRANSFERASE (120 h, time 5 day): 48.33 u/L | ALBUMIN (120 h, time 5 day): 3.97 G/DL | ALKALINE PHOSPHATASE (120 h, time 5 day): 321.67 u/L | ASPARTATE AMINOTRANSFERASE (120 h, time 5 day): 89.67 u/L | BLOOD UREA NITROGEN (120 h, time 5 day): 14 mg/dL | CARBON DIOXIDE (120 h, time 5 day): 27.67 mmol/L | CHLORIDE (120 h, time 5 day): 103.33 MEQ/L | CHOLESTEROL (120 h, time 5 day): 71 mg/dL | CREATININE (120 h, time 5 day): 0.15 mg/dL | GLUCOSE (120 h, time 5 day): 166 mg/dL | LACTATE DEHYDROGENASE (120 h, time 5 day): 145.33 u/L | LIPASE (120 h, time 5 day): 9 u/L | PHOSPHORUS (120 h, time 5 day): 12.6 mg/dL | POTASSIUM (120 h, time 5 day): 6.15 MEQ/L | SODIUM (120 h, time 5 day): 148.6 MEQ/L | TOTAL BILIRUBIN (120 h, time 5 day): 0.17 mg/dL | TOTAL PROTEIN (120 h, time 5 day): 6.1 G/DL | URIC ACID (120 h, time 5 day): 1.87 mg/dL | ABSOLUTE BASOPHIL (time 14 day): 0 CELLS/uL | ABSOLUTE EOSINOPHIL (time 14 day): 155 CELLS/uL | ABSOLUTE LYMPHOCYTE (time 14 day): 14503.4 CELLS/uL | ABSOLUTE MONOCYTE (time 14 day): 573 CELLS/uL | ABSOLUTE SEGMENTED NEUTROPHIL (time 14 day): 2768.6 CELLS/uL | BASOPHIL (time 14 day): 0% | EOSINOPHIL (time 14 day): 0.8% | ERYTHROCYTE COUNT (time 14 day): 6.23 x10E6/uL | HEMATOCRIT (time 14 day): 37.14% | HEMOGLOBIN (time 14 day): 13.54 G/DL | LEUKOCYTE COUNT (time 14 day): 18 x10E3/uL | LYMPHOCYTE (time 14 day): 80.8% | MEAN CORPUSCULAR HEMOGLOBIN (time 14 day): 21.72 pg | MEAN CORPUSCULAR HEMOGLOBIN CONCENTRATION (time 14 day): 36.46 G/DL | MEAN CORPUSCULAR VOLUME (time 14 day): 59.54 fL | MONOCYTE (time 14 day): 3.2% | NEUTROPHIL (time 14 day): 15.2% | NUCLEATED RED BLOOD CELLS (time 14 day): 0 /100WBC | PLATELET COUNT (time 14 day): 1175 x10E3/uL | ALANINE AMINOTRANSFERASE (time 14 day): 43.6 u/L | ALBUMIN (time 14 day): 4.1 G/DL | ALKALINE PHOSPHATASE (time 14 day): 276.2 u/L | ASPARTATE AMINOTRANSFERASE (time 14 day): 80 u/L | BLOOD UREA NITROGEN (time 14 day): 19.6 mg/dL | CARBON DIOXIDE (time 14 day): 29.4 mmol/L | CHLORIDE (time 14 day): 100.6 MEQ/L | CHOLESTEROL (time 14 day): 69.8 mg/dL | CREATININE (time 14 day): 0.23 mg/dL | GLUCOSE (time 14 day): 173.8 mg/dL | LACTATE DEHYDROGENASE (time 14 day): 166.4 u/L | LIPASE (time 14 day): 8.6 u/L | PHOSPHORUS (time 14 day): 13.24 mg/dL | POTASSIUM (time 14 day): 7.17 MEQ/L | SODIUM (time 14 day): 144.9 MEQ/L | TOTAL BILIRUBIN (time 14 day): 0.18 mg/dL | TOTAL PROTEIN (time 14 day): 6.42 G/DL | URIC ACID (time 14 day): 2.54 mg/dL

From ChEMBL document CHEMBL3885881, “DrugMatrix”
